Measured values from paper PMC7136958, “Targeting the pregnane X receptor using microbial metabolite mimicry” (EMBO Molecular Medicine, 2020).

Assays:
PXR = biological target: T1, PXR (Homo sapiens, UniProt O75469); experiment: PXR reporter (p3A4-luc luciferase) assay in LS180 cells transiently transfected with wild-type PXR; conditions: for fold induction at 0.001 µM / fold induction at 0.01 µM / fold induction at 0.1 µM / fold induction at 1 µM / fold induction at 10 µM / fold induction at 25 µM: LS180, read-out: FOLD INDUCTION of PXR reporter luciferase activity; for FOLD INDUCTION of PXR reporter luciferase activity: 24 h, over UT
T1 sequence (O75469 1-434): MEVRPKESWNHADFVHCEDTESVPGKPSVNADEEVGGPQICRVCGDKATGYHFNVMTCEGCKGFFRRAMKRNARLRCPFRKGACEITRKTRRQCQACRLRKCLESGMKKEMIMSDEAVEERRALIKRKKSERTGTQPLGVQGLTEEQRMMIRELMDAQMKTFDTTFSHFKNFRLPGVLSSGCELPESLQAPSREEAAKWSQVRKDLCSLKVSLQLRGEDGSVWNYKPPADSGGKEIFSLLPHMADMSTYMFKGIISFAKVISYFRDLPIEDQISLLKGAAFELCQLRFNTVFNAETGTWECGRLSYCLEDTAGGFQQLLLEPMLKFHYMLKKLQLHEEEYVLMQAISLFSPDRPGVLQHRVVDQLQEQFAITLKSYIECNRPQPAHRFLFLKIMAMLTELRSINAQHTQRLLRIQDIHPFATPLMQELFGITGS
Procedure: Incubations were performed in four technical replicates. After the treatments, cells were lysed and luciferase activity was measured on Tecan Infinite M200 Pro plate reader (Schoeller Instruments, Prague, Czech Republic). The data are expressed as fold induction ± SD of luciferase activity over the control cells (agonistic mode—in the absence of a model ligand) or as a percentage of maximal activation ± SD (antagonistic mode—in the presence of a model ligand). […] For all the transfection experiments, specifically multiplexed transfections, the control wells were mock‐transfected ([…]). However, to exclude non‐specific binding of PXR (or other factors) upstream of the luciferase gene within non‐PXR‐binding elements, we performed pilot experiments in different cell passages (P11, P14, and P17) of LS174T cells using a mock luciferase plasmid (luciferase not containing an upstream PXR‐binding element of the CYP3A4 promoter).

AhR = biological target: T2, AhR (Homo sapiens, UniProt P35869); experiment: AhR reporter assay, HepG2 cells stably expressing pCYP1A1 luciferase (AZ-AHR); assay type: cell-based; conditions: AZ-AHR cells, fold vs DMSO; for fold induction at 24 h, 0.001 µM / fold induction at 24 h, 0.01 µM / fold induction at 24 h, 0.1 µM / fold induction at 24 h, 1 µM / fold induction at 24 h, 10 µM: human
T2 construct: endogenous in cells; host or cells: AZ-AHR (HepG2)
T2 sequence (P35869 11-848): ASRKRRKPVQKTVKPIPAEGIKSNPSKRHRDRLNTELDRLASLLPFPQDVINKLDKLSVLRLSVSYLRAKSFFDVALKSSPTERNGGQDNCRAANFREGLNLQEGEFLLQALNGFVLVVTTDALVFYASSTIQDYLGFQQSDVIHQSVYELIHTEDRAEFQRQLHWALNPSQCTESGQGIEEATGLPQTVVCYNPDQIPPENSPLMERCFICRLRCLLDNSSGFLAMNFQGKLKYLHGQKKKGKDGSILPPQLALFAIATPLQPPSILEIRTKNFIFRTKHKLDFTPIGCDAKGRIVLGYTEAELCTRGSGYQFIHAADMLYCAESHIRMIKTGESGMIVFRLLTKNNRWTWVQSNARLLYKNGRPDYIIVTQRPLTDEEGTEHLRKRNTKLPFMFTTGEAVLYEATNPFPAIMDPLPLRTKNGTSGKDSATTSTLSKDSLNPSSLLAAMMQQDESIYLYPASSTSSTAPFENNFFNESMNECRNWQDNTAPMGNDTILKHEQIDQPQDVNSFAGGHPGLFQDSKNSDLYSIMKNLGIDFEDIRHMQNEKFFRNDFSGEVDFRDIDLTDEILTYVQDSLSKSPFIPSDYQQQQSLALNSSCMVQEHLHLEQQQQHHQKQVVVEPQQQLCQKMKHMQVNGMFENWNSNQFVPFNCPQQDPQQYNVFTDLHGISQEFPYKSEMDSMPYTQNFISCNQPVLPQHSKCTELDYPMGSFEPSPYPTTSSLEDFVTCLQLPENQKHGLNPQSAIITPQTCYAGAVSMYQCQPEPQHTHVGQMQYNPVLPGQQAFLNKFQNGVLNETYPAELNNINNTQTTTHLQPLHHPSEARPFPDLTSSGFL
Procedure: Incubations were performed in four technical replicates.

[1] = test system: PXR target genes in LS174T PXR-KO cells; experiment: PXR target gene mRNA in LS174T PXR-KO cells; assay type: cell-based, human
Procedure: Figure EV5 LS174T PXR‐knockout (KO) cells are not responsive to PXR ligands • Expression of CYP1A1 and CYP3A4 mRNA in PXR‐knockout and wild‐type LS174T. […] Experiment was performed in 4 independent cell passages (6th, 8th, 10th, and 12th). The mRNA expression of CYP1A1 and CYP3A4 mRNA was determined by RT–PCR, and data were normalized to GAPDH mRNA level. (a) CYP1A1 mRNA. (b) CYP3A4 mRNA. Data are expressed as mean ± SD. • Immunoblot for PXR protein expression in PXR wild‐type and knockout (KO) cells. Experiment was performed in nine independent cell passages (P). • Fold mRNA expression of PXR target genes. Each tissue PCR was repeated in quadruplicate. The expression was normalized to internal control, GAPDH. The entire experiment was repeated n > 2 for reproducibility. The data shown are one representative experiment. Source data are available online for this figure.
Briefly, cells were first tested negative for mycoplasma.

Row | SMILES | aver (mean luciferase signal of H1-H4) (PXR; 1 nM) | aver (mean luciferase signal of H1-H4) (PXR; 10 nM) | aver (mean luciferase signal of H1-H4) (PXR; 100 nM) | aver (mean luciferase signal of H1-H4) (PXR; 1 uM) | aver (mean luciferase signal of H1-H4) (PXR; 10 uM) | aver (mean luciferase signal of H1-H4) (PXR; 25 uM) | fold induction at 0.001 µM (PXR) | fold induction at 0.01 µM (PXR) | fold induction at 0.1 µM (PXR) | fold induction at 1 µM (PXR) | fold induction at 10 µM (PXR) | fold induction at 25 µM (PXR) | fold induction at 24 h, 0.001 µM (AhR; 1 nM) | fold induction at 24 h, 0.01 µM (AhR; 10 nM) | fold induction at 24 h, 0.1 µM (AhR; 100 nM) | fold induction at 24 h, 1 µM (AhR; 1µM) | fold induction at 24 h, 10 µM (AhR; 10 µM) | PXR target gene induction [1] | other results
1 | C#CCC(O)(c1ccncc1)c1cc2ccccc2n1S(=O)(=O)c1ccccc1 (stereo not drawn) [FKK6] | 5692.0 | 9322.0 | 9089.3 | 73854.3 | 113299.3 | 99812.0 | 1.8 | 2.9 | 2.8 | 23.1 | 35.5 | 31.3 | 0.8 | 0.7 | 0.8 | 1.1 | 3.2 | did not induce | PXR activation (in words) (PXR; cell-based transactivation): activated human PXR
2 | O=C(c1ccncc1)c1cc2ccccc2n1S(=O)(=O)c1ccccc1 [FKK5, (1-(phenylsulfonyl)-1H-indol-2-yl)(pyridin-4-yl)methanone] | 4417.0 | 4539.3 | 4741.5 | 29157.3 | 116028.0 | 119010.3 | 1.4 | 1.4 | 1.5 | 9.1 | 36.4 | 37.3 | 0.755 | 0.8 | 0.7 | 0.7 | 1.2 | did not induce | 
3 | O=S(=O)(c1ccccc1)n1c(C(O)c2ccncc2)cc2ccccc21 (racemic) [FKK1] | 3470.0 | 3768.8 | 3738.8 | 28708.8 | 56319.0 | 51971.3 |  |  |  |  |  |  |  |  |  |  |  |  | FOLD INDUCTION of PXR reporter luciferase activity (PXR; 1 nM): 1.6 fold; FOLD INDUCTION of PXR reporter luciferase activity (PXR; 10 nM): 1.8 fold; FOLD INDUCTION of PXR reporter luciferase activity (PXR; 100 nM): 1.7 fold; FOLD INDUCTION of PXR reporter luciferase activity (PXR; 1 uM): 13.4 fold; FOLD INDUCTION of PXR reporter luciferase activity (PXR; 10 uM): 26.3 fold; FOLD INDUCTION of PXR reporter luciferase activity (PXR; 25 uM): 24.3 fold; FOLD INDUCTION (AZ-AHR luciferase) (AhR; 1 nM): 0.7 fold; FOLD INDUCTION (AZ-AHR luciferase) (AhR; 10 nM): 0.746 fold; FOLD INDUCTION (AZ-AHR luciferase) (AhR; 100 nM): 1.1 fold; FOLD INDUCTION (AZ-AHR luciferase) (AhR; 1µM): 0.9 fold; FOLD INDUCTION (AZ-AHR luciferase) (AhR; 10 µM): 2.8 fold
